The source of these data is PubChem BioAssay AID256 (DTP/NCI, 2004).

This test has as its system CD2F1 mice, L1210 leukemia ip, survival T/C. Description: NCI In Vivo Anticancer Drug Screen. Data for tumor model L1210 Leukemia (intraperitoneal) in CD2F1 (CDF1) mice. To be noted: higher = longer survival. The procedure, abridged:
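Vehicle-treated tumor-bearing mice served as controls (C) for compound-treated mice (T). Reported figure is T divided by C.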

[1] abbreviates: endpoint: mean survival time, dose: 100.0 mg/kg/injection, schedule: Q01DX001 (ip), vehicle: saline.
Setting [2] is: endpoint: mean survival time, dose: 200.0 mg/kg/injection, schedule: Q01DX001 (ip), vehicle: saline.
[3] abbreviates: endpoint: mean survival time, dose: 400.0 mg/kg/injection, schedule: Q01DX001 (ip), vehicle: saline.
The mark [4] stands for this setting: endpoint: mean survival time, dose: 25.0 mg/kg/injection, schedule: Q01DX009 (ip), vehicle: Klucel (hydroxypropylcellulose) (HPC).
Where [5] appears, read: endpoint: mean survival time, dose: 50.0 mg/kg/injection, schedule: Q01DX009 (ip), vehicle: Klucel (hydroxypropylcellulose) (HPC).
Where [6] appears, read: endpoint: mean survival time, dose: 100.0 mg/kg/injection, schedule: Q01DX009 (ip), vehicle: saline with Tween-80.
[7] abbreviates: endpoint: mean survival time, dose: 200.0 mg/kg/injection, schedule: Q01DX009 (ip), vehicle: saline with Tween-80.
The mark [8] stands for this setting: endpoint: mean survival time, dose: 400.0 mg/kg/injection, schedule: Q01DX009 (ip), vehicle: saline with Tween-80.
Setting [9] is: endpoint: mean survival time, dose: 100.0 mg/kg/injection, schedule: Q04DX002 (ip), vehicle: saline with Tween-80.
Setting [10] is: endpoint: mean survival time, dose: 200.0 mg/kg/injection, schedule: Q04DX002 (ip), vehicle: saline with Tween-80.
[11] abbreviates: endpoint: mean survival time, dose: 400.0 mg/kg/injection, schedule: Q04DX002 (ip), vehicle: saline with Tween-80.
The mark [12] stands for this setting: endpoint: mean survival time, dose: 75.0 mg/kg/injection, schedule: Q01DX001 (ip), vehicle: other.
The mark [13] stands for this setting: endpoint: mean survival time, dose: 150.0 mg/kg/injection, schedule: Q01DX001 (ip), vehicle: other.
Setting [14] is: endpoint: mean survival time, dose: 100.0 mg/kg/injection, schedule: Q01DX001 (ip), vehicle: saline with Tween-80.
Setting [15] is: endpoint: mean survival time, dose: 200.0 mg/kg/injection, schedule: Q01DX001 (ip), vehicle: saline with Tween-80.
[16] abbreviates: endpoint: mean survival time, dose: 400.0 mg/kg/injection, schedule: Q01DX001 (ip), vehicle: saline with Tween-80.

Structures are written as SMILES. Values joined by “and” are separate entries in the source; they are usually repeats but may differ in a detail not shown here. Identical values can stand only once. Inconclusive results and toxic doses are left out.

On to `CC(=O)Nc1ccsc1`, for which the T/C is 96 % of control under setting [1], 95 % of control under setting [2] and 95 % of control under setting [3].
As for `CC(=O)OCC1OC(n2ncc3c(Sc4c([N+](=O)[O-])ncn4C)ncnc32)C(OC(C)=O)C1OC(C)=O` (stereo unspecified), the T/C is, setting by setting: (endpoint: mean survival time, dose: 25.0 mg/kg/injection, schedule: Q01DX009 (ip), vehicle: other) 100 % of control; (endpoint: mean survival time, dose: 50.0 mg/kg/injection, schedule: Q01DX009 (ip), vehicle: other) 102 % of control; (endpoint: mean survival time, dose: 100.0 mg/kg/injection, schedule: Q01DX009 (ip), vehicle: other) 100 % of control.
On to `Cc1cc(NC(=O)Nc2cc(F)ccc2F)no1`, for which the T/C is, setting by setting: under setting [4], 101 % of control; under setting [5], 103 % of control; (endpoint: mean survival time, dose: 100.0 mg/kg/injection, schedule: Q01DX009 (ip), vehicle: Klucel (hydroxypropylcellulose) (HPC)) 101 % of control.
For `O=C(O)CCC(NC(=O)OCc1ccccc1)C(=O)O` (stereo unspecified), the T/C reads like this: under setting [6], 98 % of control; under setting [7], 94 % of control; under setting [8], 96 % of control.
Turning to `O=C(CCl)c1ccc(Cl)cc1`, the T/C (endpoint: mean survival time, dose: 12.0 mg/kg/injection, schedule: Q01DX009 (ip), vehicle: saline with Tween-80) was 102 % of control; the T/C (endpoint: mean survival time, dose: 24.0 mg/kg/injection, schedule: Q01DX009 (ip), vehicle: saline with Tween-80) was 104 % of control; the T/C (endpoint: mean survival time, dose: 48.0 mg/kg/injection, schedule: Q01DX009 (ip), vehicle: saline with Tween-80) was 103 % of control.
For the compound `CC(=O)OC1COC(n2cnc3c(N)ncnc32)C(OC(C)=O)C1OC(C)=O` (stereo unspecified), the T/C under setting [1] is 108 % of control, the T/C under setting [2] was 101 % of control and the T/C under setting [3] is 90 % of control.
Turning to `Nc1ncnc2c1ncn2C1OC(CO)C(NC(=O)C(N)Cc2ccccc2)C1O` (stereo unspecified), the T/C reads like this: under setting [1], 94 % of control; under setting [2], 92 % of control; under setting [3], 91 % of control.
For `CC(C)CCCC(C)C1CCC2C3C(O)C=C4CC(OC(=O)CCC(C)C)CCC4(C)C3CCC12C` (stereo unspecified), the T/C under setting [6] was 94 % of control, the T/C under setting [7] is 91 % of control and the T/C under setting [8] was 100 % of control.
Regarding `CC1(C)OC2C3COP(=O)(N(CCCl)CCCl)NC(O3)C2O1` (stereo unspecified), the T/C runs as follows: (endpoint: mean survival time, dose: 3.9 mg/kg/injection, schedule: Q01DX001 (ip), vehicle: distilled water + Tween-80) 98 % of control; (endpoint: mean survival time, dose: 3.9 mg/kg/injection, schedule: Q01DX001 (ip), vehicle: distilled water + alcohol) 103 % of control; (endpoint: mean survival time, dose: 7.8 mg/kg/injection, schedule: Q01DX001 (ip), vehicle: distilled water + Tween-80) 98 % of control; (endpoint: mean survival time, dose: 7.8 mg/kg/injection, schedule: Q01DX001 (ip), vehicle: distilled water + alcohol) 108 % of control; (endpoint: mean survival time, dose: 15.6 mg/kg/injection, schedule: Q01DX001 (ip), vehicle: distilled water + alcohol) 98 % of control; (endpoint: mean survival time, dose: 31.2 mg/kg/injection, schedule: Q01DX001 (ip), vehicle: distilled water + Tween-80) 98 % of control. Moreover, the T/C by setting is: (endpoint: mean survival time, dose: 31.2 mg/kg/injection, schedule: Q01DX001 (ip), vehicle: distilled water + alcohol) 103 % of control; (endpoint: mean survival time, dose: 31.3 mg/kg/injection, schedule: Q01DX001 (ip), vehicle: distilled water + Tween-80) 98 % of control; (endpoint: mean survival time, dose: 62.5 mg/kg/injection, schedule: Q01DX001 (ip), vehicle: distilled water + Tween-80) 98 % of control; (endpoint: mean survival time, dose: 125.0 mg/kg/injection, schedule: Q01DX001 (ip), vehicle: distilled water + Tween-80) 96 % of control; (endpoint: mean survival time, dose: 250.0 mg/kg/injection, schedule: Q01DX001 (ip), vehicle: distilled water + Tween-80) 96 % of control; (endpoint: mean survival time, dose: 500.0 mg/kg/injection, schedule: Q01DX001 (ip), vehicle: distilled water + Tween-80) 97 % of control.
As for `Cc1ccc(S(=O)(=O)N=S(C)(C)=O)cc1`, the T/C is 98 % of control under setting [9], 94 % of control under setting [10] and 94 % of control under setting [11].
With `CCOC(=O)CN1CCC2CC1c1c([nH]c3ccccc13)C2c1cc2c(cc1OC)N(C)C1C(O)(C(=O)OC)C(OC(C)=O)C3(CC)C=CCN4CCC21C43` (stereo unspecified), the T/C runs as follows: (endpoint: mean survival time, dose: 0.06 mg/kg/injection, schedule: Q01DX009 (ip), vehicle: other) 87 % of control; (endpoint: mean survival time, dose: 0.13 mg/kg/injection, schedule: Q01DX009 (ip), vehicle: other) 97 % of control; (endpoint: mean survival time, dose: 0.25 mg/kg/injection, schedule: Q01DX009 (ip), vehicle: other) 92 % of control; (endpoint: mean survival time, dose: 0.5 mg/kg/injection, schedule: Q01DX009 (ip), vehicle: other) 92 % of control; (endpoint: mean survival time, dose: 1.0 mg/kg/injection, schedule: Q01DX009 (ip), vehicle: other) 97 % of control; (endpoint: mean survival time, dose: 2.0 mg/kg/injection, schedule: Q01DX009 (ip), vehicle: other) 90 % of control.
For the compound `CN1CSC(=S)N(Cc2ccccc2)C1`, the T/C is 93 % of control under setting [6], 93 % of control under setting [7] and 93 % of control under setting [8].
`Clc1ccc(OCCCCCNCCSSCCNCCCCCOc2ccc(Cl)cn2)nc1`: the T/C is 101 % of control under setting [12]; 103 % of control under setting [13]; 106 % of control (endpoint: mean survival time, dose: 300.0 mg/kg/injection, schedule: Q01DX001 (ip), vehicle: other).
Regarding `CN(C)CC(=O)N/N=C\c1ccc([N+](=O)[O-])s1`, the T/C runs as follows: (endpoint: mean survival time, dose: 50.0 mg/kg/injection, schedule: Q01DX009 (ip), vehicle: saline) 91 % of control; (endpoint: mean survival time, dose: 100.0 mg/kg/injection, schedule: Q01DX009 (ip), vehicle: saline) 93 % of control.
Consider `O=c1cc(Nc2cccc(Cl)c2Cl)[nH]c(=O)[nH]1`, for which the T/C is, setting by setting: under setting [14], 93 % of control and 97 % of control; under setting [9], 118 % of control and 91 % of control; under setting [15], 97 % of control and 98 % of control; under setting [10], 90 % of control and 92 % of control; under setting [16], 95 % of control and 97 % of control; under setting [11], 91 % of control and 100 % of control.
Consider `CC1=C(C2=C(C)C([N+](=O)[O-])(C(C)(C)C)C=C(C(C)(C)C)C2=O)C(=O)C(C(C)(C)C)=CC1([N+](=O)[O-])C(C)(C)C` (stereo unspecified), for which the T/C was 90 % of control under setting [9], 94 % of control under setting [10] and 90 % of control under setting [11].
Turning to `Cc1cnc(/C=N\NC(N)=S)c2cccc(N)c12`, the T/C reads like this: (endpoint: mean survival time, dose: 3.13 mg/kg/injection, schedule: Q01DX009 (ip), vehicle: Klucel (hydroxypropylcellulose) (HPC)) 124 % of control; (endpoint: mean survival time, dose: 3.13 mg/kg/injection, schedule: Q01DX009 (ip), vehicle: saline with Tween-80) 122 % of control; (endpoint: mean survival time, dose: 5.4 mg/kg/injection, schedule: Q03HX024 (ip), vehicle: Klucel (hydroxypropylcellulose) (HPC)) 123 % of control; (endpoint: mean survival time, dose: 8.0 mg/kg/injection, schedule: Q03HX024 (ip), vehicle: Klucel (hydroxypropylcellulose) (HPC)) 151 % of control; (endpoint: mean survival time, dose: 12.0 mg/kg/injection, schedule: Q03HX024 (ip), vehicle: Klucel (hydroxypropylcellulose) (HPC)) 112 % of control; under setting [4], 168 % of control. Further, the T/C runs as follows: under setting [5], 89 % of control; (endpoint: median survival time, dose: 3.89 mg/kg/injection, schedule: Q01DX005 (ip), vehicle: other) 114 % of control; (endpoint: median survival time, dose: 6.48 mg/kg/injection, schedule: Q01DX005 (ip), vehicle: other) 122 % of control.
In the case of `CN(C)N=Nc1cccc([N+](=O)[O-])c1`, the T/C (endpoint: mean survival time, dose: 79.0 mg/kg/injection, schedule: Q01DX009 (ip), vehicle: Klucel (hydroxypropylcellulose) (HPC)) was 107 % of control and the T/C (endpoint: mean survival time, dose: 118.0 mg/kg/injection, schedule: Q01DX009 (ip), vehicle: Klucel (hydroxypropylcellulose) (HPC)) is 102 % of control.
As for `COC(=O)c1ccc(N(C)C/C(CN2C(=O)c3ccccc3C2=O)=N\O)cc1`, the T/C under setting [12] is 92 % of control and the T/C under setting [13] is 106 % of control.
With `OC1CCCCCCCCCCC1C(O)(C(F)(F)F)C(F)(F)F` (stereo unspecified), the T/C reads like this: under setting [14], 93 % of control and 89 % of control; under setting [6], 86 % of control; under setting [15], 89 % of control; under setting [7], 91 % of control; under setting [16], 91 % of control; under setting [8], 97 % of control.
